Test results published in patent publication US20090137577A1, “HETEROCYCLIC COMPOUNDS” (Pfizer Inc., priority 2007, published 2009).

molecular target: T1, mGluR2 receptor (metabotropic glutamate receptor 2) (Homo sapiens, UniProt Q14416); assay: mGluR2 potentiator screen (FLIPR, EC10-EC20 glutamate challenge); format: cell-based; conditions: geometric mean; read-out: mGluR 2 EC50 (geometric mean);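 also: HEK cells stably expressing human mGluR2 with GL15 G protein, Fluo-4 calcium fluorescence read on FLIPR, compounds added before an EC10-EC20 glutamate challenge to detect potentiation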
T1 construct: expressed in transfected cells
T1 sequence (Q14416 19-872, species assumed): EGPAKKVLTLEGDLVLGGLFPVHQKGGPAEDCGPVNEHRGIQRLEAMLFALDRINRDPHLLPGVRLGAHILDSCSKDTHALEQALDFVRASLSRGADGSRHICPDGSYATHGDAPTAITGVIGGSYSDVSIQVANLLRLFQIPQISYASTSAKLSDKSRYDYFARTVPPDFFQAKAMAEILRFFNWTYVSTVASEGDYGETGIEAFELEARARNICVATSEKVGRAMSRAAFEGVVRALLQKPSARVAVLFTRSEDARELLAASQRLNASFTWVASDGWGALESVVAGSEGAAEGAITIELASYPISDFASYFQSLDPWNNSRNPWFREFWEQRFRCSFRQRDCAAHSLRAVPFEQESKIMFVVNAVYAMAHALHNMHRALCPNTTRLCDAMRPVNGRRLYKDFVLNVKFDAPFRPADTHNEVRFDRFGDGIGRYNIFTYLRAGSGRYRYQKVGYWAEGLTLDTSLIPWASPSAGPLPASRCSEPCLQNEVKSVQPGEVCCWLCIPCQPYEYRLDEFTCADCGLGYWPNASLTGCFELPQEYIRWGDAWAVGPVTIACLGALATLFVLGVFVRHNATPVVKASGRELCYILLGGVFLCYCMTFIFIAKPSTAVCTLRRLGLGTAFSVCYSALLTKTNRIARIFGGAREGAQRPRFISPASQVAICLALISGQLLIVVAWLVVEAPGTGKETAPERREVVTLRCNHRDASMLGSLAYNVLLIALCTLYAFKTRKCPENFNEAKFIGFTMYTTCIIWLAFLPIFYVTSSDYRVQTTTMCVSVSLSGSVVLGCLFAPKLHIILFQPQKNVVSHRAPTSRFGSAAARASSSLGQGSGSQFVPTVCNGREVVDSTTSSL

First: C[C@H]1[C@@H](c2ccccc2)OC(=O)N1Cc1ccc(OCc2ccccn2)cc1 [Example 25]
Second: CCCOc1ccc(CN2CC(c3ccccc3)OC2=O)cc1 (centres unmarked) [Example 3]
The EC50 of the first is 4.9-fold higher: 1760 nM for the first, 361 nM for the second. The second is the more potent here.

`C[C@@H]1CN(Cc2ccc(Oc3ccc(F)cc3)cc2)C(=O)O1` [Example 179] and `CC1CN(Cc2ccc(OCCc3cccc(F)c3)cc2)C(=O)O1` (centres unmarked) [Example 101] are within 1.5-fold of each other in EC50: 137 nM for the first, 188 nM for the second.

Compared with `Cc1ccc(F)cc1COc1ccc(CN2C[C@@H](C)OC2=O)cc1` [Example 205], `Cc1ccc(F)cc1COc1ccc(CN2CC(C)OC2=O)cc1` (centres unmarked) [Example 142] is 1.6-fold lower in EC50: 68 nM for the first, 43.5 nM for the second.

`C[C@@H]1CN(Cc2ccc(-c3ccc(Cl)cc3OC(F)(F)F)cc2)C(=O)O1` [Example 316] and `Cc1cc(Cl)ccc1-c1ccc(CN2C[C@@H](C)OC2=O)cc1` [Example 236] are within 1.5-fold of each other in EC50: 50.4 nM for the first, 49 nM for the second.

First: O=C1OC[C@@H]2CCCC[C@@H]2N1Cc1ccc(OCC2CCC2)cc1 [Example 1]
Second: CC(Oc1ccc(CN2C(=O)OC[C@@H]3CCCC[C@@H]32)cc1)C1CCCCC1 (some centres unmarked) [Example 37]
The EC50 of the first is 2.7-fold lower: 761 nM for the first, 2020 nM for the second.

First: C[C@@H]1CN(Cc2ccc(-c3ccc(N4CCOCC4)nc3)cc2)C(=O)O1 [Example 154]
Second: C[C@@H]1CN(Cc2ccc(-c3ccc4c(c3)OCCO4)cc2)C(=O)O1 [Example 198]
The EC50 of the first is 29-fold higher: 1240 nM for the first, 42.2 nM for the second. The second is the more potent here.

`CC(Oc1ccc(CN2CCN(C(C)C3CCC3)CC2=O)cc1)C1CCCCC1` (centres unmarked) [Example 221] and `CC(Oc1ccc(CN2CCN(C(C)CC3CC3)CC2=O)cc1)C1CCCCC1` (centres unmarked) [Example 219] are within 1.5-fold of each other in EC50: 794 nM for the first, 697 nM for the second.

Compared with `C[C@@H]1CN(Cc2ccc(-c3ccc(F)cc3F)c(F)c2)C(=O)O1` [Example 288], `Cc1ccc(-c2ccc(CN3C[C@@H](C)OC3=O)cn2)c(F)c1` [Example 257] is 12-fold higher in EC50: 36.9 nM for the first, 429 nM for the second.

Going from `COc1ccc(C(C)C)cc1-c1ccc(CN2C[C@@H](C)OC2=O)cn1` [Example 282] to `COc1ccc(-c2ccc(CN3C[C@@H](C)OC3=O)cn2)c(F)c1F` [Example 262], the EC50 falls from 1470 nM to 363 nM (4-fold).

`CC1CN(Cc2ccc(OCC3(C)CC3)cc2)C(=O)O1` (centres unmarked) [Example 95] and `CC(C)COc1ccc(CN2CC(C)OC2=O)cc1` (centres unmarked) [Example 20] are within 1.5-fold of each other in EC50: 723 nM for the first, 979 nM for the second.

Going from `C[C@@H]1CN(Cc2ccc(-c3ccc4c(c3)OCCCO4)cc2)C(=O)O1` [Example 189] to `COc1ccc(-c2ccc(CN3C[C@@H](C)OC3=O)cc2)cc1OC` [Example 190], the EC50 rises from 83.7 nM to 676 nM (8.1-fold). The first is the more potent here.

First: CC1CN(Cc2ccc(OC3CCc4ccccc43)cc2)C(=O)O1 (centres unmarked) [Example 140]
Second: CC1CN(Cc2ccc(OCc3ccccc3F)cc2)C(=O)O1 (centres unmarked) [Example 112]
The EC50 of the first is 1.6-fold lower: 85.8 nM for the first, 138 nM for the second. The first is the more potent here.

Compared with `Cc1ccc(C(C)Oc2ccc(CN3CC(C)OC3=O)cc2)cc1` (centres unmarked) [Example 125], `C[C@H]1CN(Cc2ccc(O[C@H](C)c3ccccc3)cc2)C(=O)O1` [Example 68] is 12-fold higher in EC50: 24.1 nM for the first, 299 nM for the second. The first is the more potent here.

Compared with `COc1ccc(CCCOc2ccc(CN3CC(C)OC3=O)cc2)cc1` (centres unmarked) [Example 98], `COc1cccc(CCOc2ccc(CN3CC(C)OC3=O)cc2)c1` (centres unmarked) [Example 105] is 31-fold higher in EC50: 7.07 nM for the first, 217 nM for the second.

`COc1cccc(F)c1-c1ccc(CN2C[C@@H](C)OC2=O)cc1` [Example 172] and `COc1ccc(F)cc1-c1ccc(CN2C[C@@H](C)OC2=O)cc1` [Example 166] are within 1.5-fold of each other in EC50: 31.4 nM for the first, 24.6 nM for the second.

Compared with `CC(Oc1ccc(CN2CC(c3cccnc3)OC2=O)cc1)C1CCCCC1` (centres unmarked) [Example 208], `O=C1OC(c2ccccc2)CN1Cc1ccc(OCC2CCCCC2)cc1` (centres unmarked) [Example 7] is 5.3-fold higher in EC50: 41.6 nM for the first, 220 nM for the second.

Compared with `CC1(C)COC(=O)N(Cc2ccc(OCC3CCCCC3)cc2)C1` [Example 17], `CC(Oc1ccc(CN2CC(C)(C)COC2=O)cc1)C1CCCCC1` (centres unmarked) [Example 47] is 2.8-fold lower in EC50: 696 nM for the first, 247 nM for the second. The second is the more potent here.

`CC1CN(Cc2ccc(OCc3ccc(C#N)cc3)cc2)C(=O)O1` (centres unmarked) [Example 124] and `CC1CN(Cc2ccc(OCCCc3ccncc3)cc2)C(=O)O1` (centres unmarked) [Example 116] are within 1.5-fold of each other in EC50: 827 nM for the first, 934 nM for the second.

First: CC(=O)c1cccc(-c2ccc(CN3C[C@@H](C)OC3=O)cc2)c1 [Example 193]
Second: Cc1cc(C)n(-c2cccc(-c3ccc(CN4C[C@@H](C)OC4=O)cc3)c2)n1 [Example 199]
The EC50 of the first is 1.6-fold lower: 514 nM for the first, 804 nM for the second.

Compared with `CC1CN(Cc2ccc(OCCC3CCCC3)cc2)C(=O)O1` (centres unmarked) [Example 92], `CC1CN(Cc2ccc(OCC3CCCC3)cc2)C(=O)O1` (centres unmarked) [Example 90] is 2.4-fold higher in EC50: 10.8 nM for the first, 25.5 nM for the second.

Compared with `CC(Oc1ccc(CN2CCN(CCCC(F)(F)F)CC2=O)cc1)C1CCCCC1` (centres unmarked) [Example 218], `CC(Oc1ccc(CN2CCN(CCC(F)(F)F)CC2=O)cc1)C1CCCCC1` (centres unmarked) [Example 222] is 2.1-fold lower in EC50: 681 nM for the first, 325 nM for the second.

First: CCC1CN(Cc2ccc(-c3ccc(F)cc3F)cc2)C(=O)O1 (centres unmarked) [Example 315]
Second: CCc1ccccc1-c1ccc(CN2C[C@@H](C)OC2=O)cc1 [Example 167]
The EC50 of the first is higher: 41.4 nM for the first, under 13.4 nM for the second.

First: CCC[C@H](C)Oc1ccc(CN2CC(C)OC2=O)cc1 (some centres unmarked) [Example 134]
Second: CC1CN(Cc2ccc(O[C@H](C)c3ccccc3)cc2)C(=O)O1 (some centres unmarked) [Example 139]
The EC50 of the first is 2.7-fold higher: 214 nM for the first, 79.7 nM for the second. The second is the more potent here.

Compared with `COc1ccc(F)c(-c2ccc(CN3C[C@@H](C)OC3=O)cn2)c1` [Example 260], `C[C@@H]1CN(Cc2ccc(-c3ccc(Cl)cc3Cl)nc2)C(=O)O1` [Example 269] is 1.7-fold lower in EC50: 858 nM for the first, 518 nM for the second. The second is the more potent here.

Compared with `C[C@@H]1CN(Cc2ccc(OCC3CCC(NC4CCC4)CC3)cc2)C(=O)O1` (stereo partly drawn) [Example 297, (5R)-3-(4-{[4-(Cyclobutylamino)cyclohexyl]methoxy}benzyl)-5-methyl-1,3-oxazolidin-2-one], `CC1CN(Cc2ccc(OCC3CCC3)cc2)C(=O)O1` (centres unmarked) [Example 14] is 11-fold lower in EC50: 1990 nM for the first, 178 nM for the second. The second is the more potent here.

Compared with `O=C1OC(c2ccccc2)CN1Cc1ccc(OC2CCOCC2)cc1` (centres unmarked) [Example 36], `CC(C)COc1ccc(CN2CC(c3ccccc3)OC2=O)cc1` (centres unmarked) [Example 6] is 3.8-fold lower in EC50: 571 nM for the first, 151 nM for the second. The second is the more potent here.

Going from `CC(Oc1ccc(CN2CCN(CC3CCCC3)CC2=O)cc1)C1CCCCC1` (centres unmarked) [Example 202] to `CC(Oc1ccc(CN2CCN(C(C)C)CC2=O)cc1)C1CCCCC1` (centres unmarked) [Example 201], the EC50 rises from 291 nM to 763 nM (2.6-fold). The first is the more potent here.

Compared with `C[C@@H]1CN(Cc2ccc3c(c2)Cc2ccccc2-3)C(=O)O1` [Example 185], `C[C@@H]1CN(Cc2ccc(-c3cc(Cl)cc(Cl)c3)cc2)C(=O)O1` [Example 187, (5R)-3-[(3′,5′-dichlorobiphenyl-4-yl)methyl]-5-methyl-1,3-oxazolidin-2-one] is 5.5-fold lower in EC50: 625 nM for the first, 113 nM for the second.

Going from `CC(Oc1ccc(CN2C[C@@H](C)OC2=O)cc1F)C1CCCCC1` (stereo partly drawn) [Example 230, (5R)-3-[4-(1-Cyclohexylethoxy)-3-fluorobenzyl]-5-methyl-1,3-oxazolidin-2-one] to `Cc1cc(CN2C[C@@H](C)OC2=O)ccc1OCc1ccc(C(F)(F)F)cc1` [Example 284, (5R)-5-Methyl-3-(3-methyl-4-{[4-(trifluoromethyl)benzyl]oxy}benzyl)-1,3-oxazolidin-2-one], the EC50 rises from under 21.6 nM to 309 nM.

First: Cc1onc(-c2ccccc2)c1COc1ccc(CN2CC(C)OC2=O)cc1 (centres unmarked) [Example 132]
Second: CC1CN(Cc2ccc(OCCOc3ccccc3)cc2)C(=O)O1 (centres unmarked) [Example 121]
The EC50 of the first is 3.8-fold higher: 1670 nM for the first, 434 nM for the second. The second is the more potent here.

First: C[C@@H]1CN(Cc2ccc(-c3ccc(OC(F)F)cc3Cl)nc2)C(=O)O1 [Example 312]
Second: C[C@@H]1CN(Cc2ccc(-c3ccc(C(F)(F)F)cc3)cc2)C(=O)O1 [Example 64, (5R)-5-methyl-3-{[4′-(trifluoromethyl)biphenyl-4-yl]methyl}-1,3-oxazolidin-2-one]
The EC50 of the first is 9.5-fold higher: 578 nM for the first, 61 nM for the second.
